Data published in ChEMBL document CHEMBL1142875, “Synthesis and biological evaluation of 4-alkylamino-6-(2-hydroxyethyl)-2-methylthiopyrimidines as new rubella virus inhibitors” (Eur J Med Chem, 2007).

How the values were obtained:
[1] = Cytotoxicity against Vero cells after 48 hrs; format: cell-based; conditions: chlorocebus sabaeus
[2] = Selectivity index, Ratio of CC50 for Vero cells to IC50 for Rubella virus strain THERIEN; format: functional
[3] = Inhibition of Rubella virus strain THERIEN in Vero cells after 48 hrs of high multiplicity infection by plaque assay; format: functional; parameters: concentration or dose not given beside the values
[4] = Antiviral activity against Rubella virus strain THERIEN in Vero cells; format: functional, cell-based

IC50 [4] [µM] | SMILES | CC50 at 48 h [1] [µM] | Ratio CC50/IC50 [2] | Inhibition [3] [%]
> 233 | CSc1nc(CCO)cc(N2CCN(C)CC2)n1 | 466 | <2 | 20.6
47.8 | CSc1nc(CCO)cc(N2CCC(C)CC2)n1 | 233 | 4.9 | 96.5
16.2 | CCCCCNc1nc(SC)nc(CCO)c1Cl | 108 | 6.6 | 66.4
22.6 | CSc1nc(CCO)cc(N2CCSC2)n1 | 486 | 21.6 | 95.3
114 | C#CCN(C)c1cc(CCO)nc(SC)n1 | 1050 | 9.3 | 92.1
> 231 | CSc1nc(CCO)cc(N2CCSCC2)n1 | 461 | <2 | 45.2
149 | C#CCNc1nc(SC)nc(CCO)c1Br | 827 | 5.6 | 94.4
13.5 | CCCCN(CCCC)c1cc(CCO)nc(SC)n1 | 52.5 | 3.9 | 87
112 | C=CCN(CC=C)c1cc(CCO)nc(SC)n1 | 249 | 2.2 | 54.7
25.3 | CCCN(C)c1cc(CCO)nc(SC)n1 | 519 | 20.5 | 94.2
43.5 | C=CCNc1nc(SC)nc(CCO)c1Cl | 481 | 11.1 | 83
49 | CSc1nc(CCO)cc(N2CCN(C(C)=O)CC2)n1 | 422 | 8.6 | 65.6
136 | C#CCNc1nc(SC)nc(CCO)c1Cl | 485 | 3.6 | 85.4
> 54 | CSc1nc(CCO)cc(N(C)Cc2ccccc2)n1 | 108 | <2 | 31.9
48 | CSc1nc(CCO)cc(NCc2ccc(Cl)cc2Cl)n1 | 182 | 3.8 | 76.1
170 | CSc1nc(CCO)cc(N(CCO)CCO)n1 | 1820 | 10.7 | 95.7

IC50 [4] [µM] | SMILES | CC50 at 48 h [1] [µM] | Ratio CC50/IC50 [2] | Inhibition [3] [%]
48.1 | CSc1nc(CCO)cc(N2CCCC2)n1 | 523 | 10.9 | 72.6
21.6 | CCCCCNc1cc(CCO)nc(SC)n1 | 245 | 11.4 | 94.7
34.1 | C#CCNc1nc(SC)nc(CCO)c1I | 716 | 21 | 97.3
17.6 | CSc1nc(CCO)cc(N2CCN(c3cccc(C(F)(F)F)c3)CC2)n1 | 39.2 | 2.2 | 58.9
57 | CSc1nc(CCO)cc(N2CCN(c3ccccc3)CC2)n1 | 189 | 3.3 | 90
27.5 | CCCCCNc1nc(SC)nc(CCO)c1I | 81.8 | 3 | 95.1
51.7 | CSc1nc(CCO)cc(N2CCN(c3ccc(F)cc3)CC2)n1 | 180 | 3.5 | 93.2
50.9 | C=CCNc1nc(SC)nc(CCO)c1Br | 411 | 8.1 | 86.9
37.4 | CCCCCNc1nc(SC)nc(CCO)c1Br | 93.3 | 2.5 | 60
80.7 | CSc1nc(CCO)cc(N(C)C)n1 | 587 | 7.3 | 92.8
15.7 | C=CCNc1nc(SC)nc(CCO)c1I | 356 | 22.7 | 93.9
> 278 | CSc1nc(CCO)cc(N2CCC2)n1 | 556 | <2 | 35.6
> 215 | COc1ccc(Nc2cc(CCO)nc(SC)n2)cc1 | 430 | <2 | 43.3
27.8 | COc1ccccc1N1CCN(c2cc(CCO)nc(SC)n2)CC1 | 174 | 6.2 | 96.1
> 29 | CCCN(CCC)c1cc(CCO)nc(SC)n1 | 58 | <2 | 0
108 | C#CCNc1cc(CCO)nc(SC)n1 | 1120 | 10.4 | 98.8
